The subject of test [1] is binding of Cy3-ASF to lectin spots. The test is described as follows: Inhibition of lectin-sugar chain interaction on lectin array by competitively inhibiting sugar (Example 1). Particulars: Cy3-ASF probe, increasing inhibiting sugar concentration.
In test [2] the test system is glycoprotein probe derived from mouse brain. Description: Lectin array (40 lectins) with crude brain-derived glycoprotein probe plus inhibiting sugar (Example 7). It counts as binding. As to conditions: 10 mM inhibiting sugar added to brain-derived glycoprotein probe, FIG. 14C. How it is done: A glycoprotein sample extracted and purified from mouse liver and a glycoprotein sample extracted and purified from mouse brain were labeled with Cy3 to form probes, then contacted with a lectin array onto which 40 types of lectins were immobilized, and the sugar chain profile of the entire extracted mouse glycoprotein mixture was observed. Next, 10 mM of lactose was added as a competitively inhibiting sugar to the brain-derived glycoprotein probe used in the previous experiment, and the sugar chain profile was observed (FIG. 14C). […] As shown by this experiment, even when using a lectin array for the sugar chain profiling of cruder samples, comparisons and analyses between individuals can be made easier and faster by the combined use of addition experiments that use various inhibiting sugars, and comparison and analysis after narrowing down the obtained data.

In the case of `OC[C@H]1O[C@@H](O[C@H]2[C@H](O)[C@@H](O)C(O)O[C@@H]2CO)[C@H](O)[C@@H](O)[C@H]1O` (some centres unmarked) [lactose], the “fluorescence intensity of the spots in the presence of inhibiting sugar” value in test [1] is listed as “decreases as the concentration of lactose (competitively inhibiting sugar) increases”. The “change of fluorescence signal pattern due to competitive inhibition” value in test [2] is “reduction was observed mainly in the signals of lactosamine-recognizing lectins”.

The values above are taken from patent publication US8008094B2, “Methods for analyzing interactions between proteins and sugar chains” (National Institute of Advanced Industrial Science and …, priority 2003, dated 2011).
